# In patent publication US20090111798A1, “5,6-DIHYDRO-1H-PYRIDIN-2-ONE COMPOUNDS” (priority 2006, published 2009):
# Structures can show the parent of a compound that is named as a salt.
# Molecular target: NS5B polymerase (Hepatitis C virus genotype 1b, UniProt P26663)
# Test: biochemical
# Settings: NS5B polymerase inhibition; 20 nM enzyme, 75 min at 28° C.
# Protocol: Compounds were tested for HCV polymerase inhibition. Assays were performed in a 96-well streptavidin-coated FlashPlate using 20 nM enzyme, 0.5μ Ci of [α-^33P]GTP, 0.6 μM GTP, and 250 nM 5′biotinylated oligo (rG13)/poly rC in 20 mM Tris-HCl, pH 7.5, 5 mM MgCl2, 5 mM dithiothreitol, 0.1 g/L bovine serum albumin, and 100 U/mL RNAse inhibitor. The reaction was stopped by aspiration after 75 min at 28° C. and the plate was washed several times. After washing and drying the plate, incorporated radioactivity was counted using a Microbeta scintillation counter. IC50 values were calculated relative to the uninhibited control and inhibition data were fitted to a 4-parameter IC50 equation.
# Sequence of NS5B polymerase (P26663 2420-3010): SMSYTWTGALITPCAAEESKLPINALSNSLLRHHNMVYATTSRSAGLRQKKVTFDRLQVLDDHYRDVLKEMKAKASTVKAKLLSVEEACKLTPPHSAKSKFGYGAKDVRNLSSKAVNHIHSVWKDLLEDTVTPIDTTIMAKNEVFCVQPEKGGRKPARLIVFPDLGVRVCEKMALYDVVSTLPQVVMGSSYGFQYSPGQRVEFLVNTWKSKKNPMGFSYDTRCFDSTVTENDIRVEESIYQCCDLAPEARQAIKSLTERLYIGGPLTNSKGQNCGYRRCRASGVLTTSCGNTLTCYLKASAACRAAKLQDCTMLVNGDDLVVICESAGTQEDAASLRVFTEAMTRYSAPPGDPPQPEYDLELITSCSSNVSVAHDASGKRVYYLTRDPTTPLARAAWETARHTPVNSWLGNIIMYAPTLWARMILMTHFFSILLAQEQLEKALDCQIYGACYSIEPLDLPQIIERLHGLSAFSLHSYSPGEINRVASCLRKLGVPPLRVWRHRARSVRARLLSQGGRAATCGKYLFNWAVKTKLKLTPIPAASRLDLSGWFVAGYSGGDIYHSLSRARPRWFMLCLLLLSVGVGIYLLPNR
row,IC50 [nM],SMILES
1,20 to 100,"CS(=O)(=O)Nc1ccc2c(c1)S(=O)(=O)N=C(C1=C(O)C3CCCCCC3N(NC3CCC3)C1=O)N2 (stereo not drawn) [Example 60, N-[3-(1-Cyclobutylamino-4-hydroxy-2-oxo-2,4a,5,6,7,8,9,9a-octahydro-1H-cyclohepta[b]pyridin-3-yl)-1,1-dioxo-1,4-dihydro-1λ^6-benzo[1,2,4]thiadiazin-7-yl]-methanesulfonamide trifluoroaceticacid salt]"
2,100 to 1000,"CS(=O)(=O)Nc1ccc2c(c1)S(=O)(=O)N=C(C1=C(O)C3CCCCCCC3N(Cc3ccc(F)cc3)C1=O)N2 (stereo not drawn) [Example 3, N-{3-[1-(4-Fluoro-benzyl)-4-hydroxy-2-oxo-1,2,4a,5,6,7,8,9,10,10a-decahydro-cycloocta[b]pyridin-3-yl]-1,1-dioxo-1,4-dihydro-1λ^6-benzo[1,2,4]thiadiazin-7-yl]-methanesulfonamide]"
3,< 20,"CS(=O)(=O)Nc1ccc2c(c1)S(=O)(=O)N=C(C1=C(O)[C@@H]3CCC[C@@H]3N(Cc3ccc(F)cc3)C1=O)N2 [Example 12, (4aR,7aS)—N-{3-[1-(4-Fluoro-benzyl)-4-hydroxy-2-oxo-2,4-a,5,6,7,7a-hexahydro-1H-[1]pyrindin-3-yl]-1,1-dioxo-1,4-dihydro-1λ^6-benzo[1,2,4]thiadiazin-7-yl}-methanesulfonamide]"
4,100 to 1000,O=C1C(C2=NS(=O)(=O)c3ccccc3N2)=C(O)C2CCCC2N1Cc1ccc(F)cc1 (mixture of isomers) [Example 51]
5,1000 to 100000,"CS(=O)(=O)Nc1ccc2c(c1)S(=O)(=O)N=C(C1=C(O)[C@@H]3CCC[C@@H]3N(C3CCCC3)C1=O)N2 (relative stereo) [Example 10, cis-N-[3-(1-Cyclopentyl-4-hydroxy-2-oxo-2,4-a,5,6,7,7a-hexahydro-1H-[1]pyrindin-3-yl)-1,1-dioxo-1,4-dihydro-1λ^6-benzo[1,2,4]thiadiazin-7-yl]-methanesulfonamide]"
6,1000 to 100000,"CN(C)N1C(=O)C(C2=NS(=O)(=O)c3cc(NS(C)(=O)=O)ccc3N2)=C(O)[C@@H]2CCC[C@@H]21 (relative stereo) [Example 38, cis-N-[3-(1-Dimethylamino-4-hydroxy-2-oxo-2,4-a,5,6,7,7a-hexahydro-1H-[1]pyrindin-3-yl)-1,1-dioxo-1,4-dihydro-1λ^6-benzo[1,2,4]thiadiazin-7-yl]-methanesulfonamide hydrochloride]"
7,20 to 100,"CC(C)CCN1C(=O)C(C2=NS(=O)(=O)c3cc(NS(C)(=O)=O)ccc3N2)=C(O)C2CCCCC21 (stereo not drawn) [Example 20, N-{3-[2-(3-Methylbutyl)-5-hydroxy-3-oxo-2-aza-bicyclo[4.4.0]dec-4-en-4-yl]-1,1-dioxo-1,4-dihydro-1λ^6-benzo[1,2,4]thiadiazin-7-yl}-methanesulfonamide]"
8,1000 to 100000,"O=C1C(C2=NS(=O)(=O)c3cc(I)ccc3N2)=C(O)[C@@H]2CCC[C@@H]2N1Cc1ccc(F)cc1 [Example 39, (4aR,7aS)-1-(4-Fluoro-benzyl)-4-hydroxy-3-(7-iodo-1,1-dioxo-1,4-dihydro-1λ^6-benzo[1,2,4]thiadiazin-3-yl)-1,4-a,5,6,7,7a-hexahydro-[1]pyrindin-2-one]"
9,20 to 100,"CS(=O)(=O)Nc1ccc2c(c1)S(=O)(=O)N=C(C1=C(O)[C@@H]3CC=CC[C@@H]3N(Cc3ccc(F)cc3)C1=O)N2 (relative stereo) [Example 37, cis-N-{3-[1-(4-Fluoro-benzyl)-4-hydroxy-2-oxo-1,2,4a,5,8,8a-hexahydro-quinolin-3-yl]-1,1-dioxo-1,4-dihydro-1λ^6 benzo[1,2,4]thiadiazin-7-yl}-methanesulfonamide]"
10,< 20,"CC(C)(C)CCN1C(=O)C(C2=NS(=O)(=O)c3cc(NS(C)(=O)=O)ccc3N2)=C(O)[C@@H]2CCC[C@@H]21 [Example 29, (4aR,7aS)—N-{3-[1-(3,3-Dimethyl-butyl)-4-hydroxy-2-oxo-2,4-a,5,6,7,7a-hexahydro-1H-[1]pyrindin-3-yl]-1,1-dioxo-1,4-dihydro-1λ^6-benzo[1,2,4]thiadiazin-7-yl]-methanesulfonamide]"
11,< 20,"Cc1cc(CN2C(=O)C(C3=NS(=O)(=O)c4cc(NS(C)(=O)=O)ccc4N3)=C(O)[C@@H]3CCC[C@@H]32)ccc1F [Example 22, (4aR,7aS)—N-{3-[1-(4-fluoro-3-methyl-benzyl)-4-hydroxy-2-oxo-2,4-a,5,6,7,7a-hexahydro-1H-[1]pyrindin-3-yl]-1,1-dioxo-1,4-dihydro-1λ^6-benzo[1,2,4]thiadiazin-7-yl}-methanesulfonamide]"
12,20 to 100,"CS(=O)(=O)Nc1ccc2c(c1)S(=O)(=O)N=C(C1=C(O)[C@H]3CCCC[C@H]3N(Cc3ccc(F)cc3)C1=O)N2 [Example 31, (4aS, 8aR)—N-{3-[1-(4-Fluoro-benzyl)-4-hydroxy-2-oxo-1,2,4a,5,6,7,8,8a-octahydro-quinolin-3-yl]-1,1-dioxo-1,4-dihydro-1λ^6 benzo[1,2,4]thiadiazin-7-yl]-methanesulfonamide]"
13,100 to 1000,"CS(=O)(=O)Nc1ccc2c(c1)S(=O)(=O)N=C(C1=C(O)[C@@H]3CCC[C@@H]3N(Cc3ccc(F)cn3)C1=O)N2 (relative stereo) [Example 5, cis-N-{3-[1-(5-Fluoro-pyridin-2-ylmethyl)-4-hydroxy-2-oxo-2,4-a,5,6,7,7a-hexahydro-1H-[1]pyrindin-3-yl]-1,1-dioxo-1,4-dihydro-1λ^6-benzo[1,2,4]thiadiazin-7-yl}-methanesulfonamide]"
14,100 to 1000,"CS(=O)(=O)Nc1ccc2c(c1)S(=O)(=O)N=C(C1=C(O)[C@@H]3CCC[C@@H]3N(CC3CC3)C1=O)N2 [Example 30, (4aR,7aS)—N-[3-(1-Cyclopropylmethyl-4-hydroxy-2-oxo-2,4-a,5,6,7,7a-hexahydro-1H-[1]pyrindin-3-yl)-1,1-dioxo-1,4-dihydro-1λ^6-benzo[1,2,4]thiadiazin-7-yl]-methanesulfonamide]"
15,100 to 1000,"CS(=O)(=O)Nc1ccc2c(c1)S(=O)(=O)N=C(C1=C(O)[C@@H]3CCC[C@@H]3N(Cc3ccccn3)C1=O)N2 (relative stereo) [Example 4, cis-N-[3-(4-Hydroxy-2-oxo-1-pyridin-2-ylmethyl-2,4-a,5,6,7,7a-hexahydro-1H-[1]pyrindin-3-yl)-1,1-dioxo-1,4-dihydro-1λ^6-benzo[1,2,4]thiadiazin-7-yl]-methanesulfonamide]"
16,100 to 1000,"CS(=O)(=O)Nc1ccc2c(c1)S(=O)(=O)N=C(C1=C(O)C3CCCCC3N(C3CCCCC3)C1=O)N2 (stereo not drawn) [Example 49, N-[3-(1-Cyclohexyl-4-hydroxy-2-oxo-1,2,4a,5,6,7,8,8a-octahydro-quinolin-3-yl)-1,1-dioxo-1,4-dihydro-1λ^6-benzo[1,2,4]thiadiazin-7-yl]-methanesulfonamide]"
17,100 to 1000,"CC(C)CCN1C(=O)C(C2=NS(=O)(=O)c3cc(N(C)S(C)(=O)=O)ccc3N2)=C(O)C2CCCCCC21 (stereo not drawn) [Example 34, N-{3-[4-Hydroxy-1-(3-methyl-butyl)-2-oxo-2,4-a,5,6,7,8,9,9a-octahydro-1H-cyclohepta[b]pyridin-3-yl]-1,1-dioxo-1,4-dihydro-1λ^6-benzo[1,2,4]thiadiazin-7-yl}-N-methyl-methanesulfonamide]"
18,1000 to 100000,"CS(=O)(=O)Nc1ccc2c(c1)S(=O)(=O)N=C(C1=C(O)C3CCCCCC3NC1=O)N2 (stereo not drawn) [Example 59, N-[3-(4-Hydroxy-2-oxo-2,4a,5,6,7,8,9,9a-octahydro-1H-cyclohepta[b]pyridin-3-yl)-1,1-dioxo-1,4-dihydro-1λ^6-benzo[1,2,4]thiadiazin-7-yl]-methanesulfonamide]"
